Source: patent US9695155B2, “Herbicidal substituted pyrimidinyloxy benzene compounds” (E. I. DU PONT DE NEMOURS AND COMPANY, priority 2013, dated 2017)

Key:
barnyardgrass [1] = assay: Test A preemergence; assay type: in vivo, Echinochloa crus-galli; conditions: for Plant response rating, Barnyardgrass: 0 to 100 scale where 0 is no effect and 100 is complete control
In short: (§1)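 Greenhouse pot test, loam/sand soil. Formulation: non-phytotoxic solvent mix plus surfactant. Pre: directed spray onto soil after sowing. Post: plants at 1–2 leaf, 2–10 cm. Rated visually vs untreated controls at ~10 d, 0 (no effect) to 100 (complete control).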

kochia [2] = assay: Test A preemergence; assay type: in vivo, Kochia scoparia; conditions: for Plant response rating, Kochia: 0 to 100 scale where 0 is no effect and 100 is complete control
In short: as §1

ragweed [3] = assay: Test A preemergence; assay type: in vivo, Ambrosia elatior; conditions: for Plant response rating, Ragweed: 0 to 100 scale where 0 is no effect and 100 is complete control
In short: as §1

Italian ryegrass [4] = assay: Test A preemergence; assay type: in vivo, Lolium multiflorum; conditions: for Plant response rating, Ryegrass, Italian: 0 to 100 scale where 0 is no effect and 100 is complete control
In short: as §1

giant foxtail [5] = assay: Test A preemergence; assay type: in vivo, Setaria faberii; conditions: for Plant response rating, Foxtail, Giant: 0 to 100 scale where 0 is no effect and 100 is complete control
In short: as §1

pigweed [6] = assay: Test A preemergence; assay type: in vivo, Amaranthus retroflexus; conditions: for Plant response rating, Pigweed: 0 to 100 scale where 0 is no effect and 100 is complete control
In short: as §1

barnyardgrass [7] = assay: Test A postemergence; assay type: in vivo, Echinochloa crus-galli; conditions: for Plant response rating, Barnyardgrass: 0 to 100 scale, 0 no effect, 100 complete control; for Barnyardgrass plant response rating: 0 to 100 scale where 0 is no effect and 100 is complete control
In short: as §1

kochia [8] = assay: Test A postemergence; assay type: in vivo, Kochia scoparia; conditions: for Plant response rating, Kochia: 0 to 100 scale, 0 no effect, 100 complete control; for Kochia plant response rating: 0 to 100 scale where 0 is no effect and 100 is complete control
In short: as §1

ragweed [9] = assay: Test A postemergence; assay type: in vivo, Ambrosia elatior; conditions: for Plant response rating, Ragweed: 0 to 100 scale, 0 no effect, 100 complete control; for Ragweed plant response rating: 0 to 100 scale where 0 is no effect and 100 is complete control
In short: as §1

Italian ryegrass [10] = assay: Test A postemergence; assay type: in vivo, Lolium multiflorum; conditions: for Plant response rating, Ryegrass, Italian: 0 to 100 scale, 0 no effect, 100 complete control; for Ryegrass, Italian plant response rating: 0 to 100 scale where 0 is no effect and 100 is complete control
In short: as §1

giant foxtail [11] = assay: Test A postemergence; assay type: in vivo, Setaria faberii; conditions: for Plant response rating, Foxtail, Giant: 0 to 100 scale, 0 no effect, 100 complete control; for Foxtail, Giant plant response rating: 0 to 100 scale where 0 is no effect and 100 is complete control
In short: as §1

pigweed [12] = assay: Test A postemergence; assay type: in vivo, Amaranthus retroflexus; conditions: for Plant response rating, Pigweed: 0 to 100 scale, 0 no effect, 100 complete control; for Pigweed plant response rating: 0 to 100 scale where 0 is no effect and 100 is complete control
In short: as §1

wheat = assay: Test A postemergence; assay type: in vivo, Triticum aestivum; conditions: for Plant response rating, Wheat: 0 to 100 scale, 0 no effect, 100 complete control; for Wheat plant response rating: 0 to 100 scale where 0 is no effect and 100 is complete control
In short: as §1

corn = assay: Test A postemergence; assay type: in vivo, Zea mays; conditions: for Plant response rating, Corn: 0 to 100 scale, 0 no effect, 100 complete control; for Corn plant response rating: 0 to 100 scale where 0 is no effect and 100 is complete control
In short: as §1

blackgrass = assay: Test A postemergence; assay type: in vivo, Alopecurus myosuroides; conditions: for Plant response rating, Blackgrass: 0 to 100 scale, 0 no effect, 100 complete control; for Blackgrass plant response rating: 0 to 100 scale where 0 is no effect and 100 is complete control
In short: as §1

galium = assay: Test A postemergence; assay type: in vivo, Galium aparine; conditions: for Plant response rating, Galium: 0 to 100 scale, 0 no effect, 100 complete control; for Galium plant response rating: 0 to 100 scale where 0 is no effect and 100 is complete control
In short: as §1

rice = assay: Test B flooded paddy test; assay type: in vivo, Oryza sativa; conditions: Flood, 250 g ai/ha; 0 to 100 scale where 0 is no effect and 100 is complete control
In short: (§2)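 Visual ratings on a 0 to 100 scale, where 100 means complete control, compared treated plants with controls after 13 to 15 days in a greenhouse. Treatment went into paddy water 3 cm deep over the soil, applied to plants at the 2-leaf stage.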

sedge, umbrella = assay: Test B flooded paddy test; assay type: in vivo, Cyperus difformis; conditions: Flood, 250 g ai/ha; 0 to 100 scale where 0 is no effect and 100 is complete control
In short: as §2

Heteranthera limosa = assay: Test B flooded paddy test; assay type: in vivo; conditions: Flood, 250 g ai/ha; 0 to 100 scale where 0 is no effect and 100 is complete control
In short: as §2

barnyardgrass [13] = assay: Test B flooded paddy test; assay type: in vivo, Echinochloa crus-galli; conditions: Flood, 250 g ai/ha; 0 to 100 scale where 0 is no effect and 100 is complete control
In short: as §2

[14] = 31 g ai/ha, visual, approximately 10 days

COc1cnn(-c2c(F)cccc2Oc2ncc(Cl)cn2)c1 [Compound 121]
50: Plant response rating, Foxtail, Giant (giant foxtail [5]; 125 g ai/ha)
60: Plant response rating, Kochia (kochia [2]; 125 g ai/ha) | Pigweed plant response rating (0 to 100 scale) (pigweed [6]; 31 g ai/ha)
45: Plant response rating, Ducksalad (Heteranthera limosa)
10: Plant response rating, Ragweed (ragweed [3]; 125 g ai/ha) | Foxtail, Giant plant response rating (0 to 100 scale) (giant foxtail [5]; 31 g ai/ha) | Plant response rating, Ragweed (ragweed [9]; 31 g ai/ha) | Plant response rating, Pigweed (pigweed [12]; 31 g ai/ha) | Corn plant response rating (corn; 125 g ai/ha) | Plant response rating, Blackgrass (blackgrass; 31 g ai/ha) | Plant response rating, Galium (galium; 31 g ai/ha)
20: Barnyardgrass plant response rating (barnyardgrass [7]; 125 g ai/ha) | Plant response rating, Kochia (kochia [8]; 31 g ai/ha) | Plant response rating, Barnyardgrass (barnyardgrass [13])
30: Plant response rating, Barnyardgrass (barnyardgrass [1]; 125 g ai/ha) | Foxtail, Giant plant response rating (giant foxtail [11]; 125 g ai/ha) | Blackgrass plant response rating (blackgrass; 125 g ai/ha) | Galium plant response rating (galium; 125 g ai/ha)
40: Kochia plant response rating (kochia [8]; 125 g ai/ha) | Ragweed plant response rating (ragweed [9]; 125 g ai/ha) | Pigweed plant response rating (pigweed [12]; 125 g ai/ha)
90: Plant response rating, Pigweed (pigweed [6]; 125 g ai/ha)
0: Barnyardgrass plant response rating (0 to 100 scale) (barnyardgrass [1]; 31 g ai/ha) | Kochia plant response rating (0 to 100 scale) (kochia [2]; 31 g ai/ha) | Ragweed plant response rating (0 to 100 scale) (ragweed [3]; 31 g ai/ha) | Ryegrass, Italian plant response rating (0 to 100 scale) (Italian ryegrass [4]; 31 g ai/ha) | Plant response rating, Ryegrass, Italian (Italian ryegrass [4]; 125 g ai/ha) | Plant response rating, Barnyardgrass (barnyardgrass [7]; 31 g ai/ha) | Plant response rating, Ryegrass, Italian (Italian ryegrass [10]; 31 g ai/ha) | Ryegrass, Italian plant response rating (Italian ryegrass [10]; 125 g ai/ha) | Plant response rating, Foxtail, Giant (giant foxtail [11]; 31 g ai/ha) | Plant response rating, Wheat (wheat; 31 g ai/ha) | Wheat plant response rating (wheat; 125 g ai/ha) | Plant response rating, Corn (corn; 31 g ai/ha) | Plant response rating, Rice (rice) | Plant response rating, Sedge, Umbrella (sedge, umbrella)

Fc1cnc(Oc2cccc(F)c2-n2cc(OCC(F)(F)F)cn2)nc1 [Compound 126]
80: Plant response rating, Barnyardgrass (barnyardgrass [1]; 125 g ai/ha) | Pigweed plant response rating (0 to 100 scale) (pigweed [6]; 31 g ai/ha) | Pigweed plant response rating (pigweed [12]; 125 g ai/ha)
60: Galium plant response rating (galium; 125 g ai/ha)
100: Plant response rating, Foxtail, Giant (giant foxtail [5]; 125 g ai/ha) | Plant response rating, Pigweed (pigweed [6]; 125 g ai/ha) | Kochia plant response rating (kochia [8]; 125 g ai/ha)
0: Ragweed plant response rating (0 to 100 scale) (ragweed [3]; 31 g ai/ha) | Ryegrass, Italian plant response rating (0 to 100 scale) (Italian ryegrass [4]; 31 g ai/ha) | Plant response rating, Ryegrass, Italian (Italian ryegrass [4]; 125 g ai/ha) | Plant response rating, Ryegrass, Italian (Italian ryegrass [10]; 31 g ai/ha) | Plant response rating, Wheat (wheat; 31 g ai/ha) | Plant response rating, Corn (corn; 31 g ai/ha) | Plant response rating, Rice (rice) | Plant response rating, Barnyardgrass (barnyardgrass [13])
10: Barnyardgrass plant response rating (0 to 100 scale) (barnyardgrass [1]; 31 g ai/ha) | Plant response rating, Barnyardgrass (barnyardgrass [7]; 31 g ai/ha) | Plant response rating, Ragweed (ragweed [9]; 31 g ai/ha) | Ryegrass, Italian plant response rating (Italian ryegrass [10]; 125 g ai/ha) | Plant response rating, Foxtail, Giant (giant foxtail [11]; 31 g ai/ha) | Wheat plant response rating (wheat; 125 g ai/ha) | Plant response rating, Blackgrass (blackgrass; 31 g ai/ha)
90: Plant response rating, Kochia (kochia [2]; 125 g ai/ha)
20: Plant response rating, Ragweed (ragweed [3]; 125 g ai/ha) | Corn plant response rating (corn; 125 g ai/ha) | Blackgrass plant response rating (blackgrass; 125 g ai/ha) | Plant response rating, Galium (galium; 31 g ai/ha) | Plant response rating, Sedge, Umbrella (sedge, umbrella)
65: Plant response rating, Ducksalad (Heteranthera limosa)
40: Kochia plant response rating (0 to 100 scale) (kochia [2]; 31 g ai/ha) | Barnyardgrass plant response rating (barnyardgrass [7]; 125 g ai/ha) | Plant response rating, Kochia (kochia [8]; 31 g ai/ha)
50: Foxtail, Giant plant response rating (0 to 100 scale) (giant foxtail [5]; 31 g ai/ha) | Ragweed plant response rating (ragweed [9]; 125 g ai/ha) | Foxtail, Giant plant response rating (giant foxtail [11]; 125 g ai/ha) | Plant response rating, Pigweed (pigweed [12]; 31 g ai/ha)

Cc1cc(C)n(-c2ccccc2Oc2ncc(Cl)cn2)n1 [Compound 264]
0: Plant response rating, Barnyardgrass (barnyardgrass [1]; [14]) | Barnyardgrass plant response rating (0 to 100 scale, 0 is no effect, 100 is complete control) (barnyardgrass [1]; 125 g ai/ha) | Plant response rating, Kochia (kochia [2]; [14]) | Kochia plant response rating (0 to 100 scale) (kochia [2]; 125 g ai/ha) | Plant response rating, Ragweed (ragweed [3]; [14]) | Ragweed plant response rating (0 to 100 scale) (ragweed [3]; 125 g ai/ha) | Plant response rating, Ryegrass, Italian (Italian ryegrass [4]; [14]) | Ryegrass, Italian plant response rating (0 to 100 scale) (Italian ryegrass [4]; 125 g ai/ha) | Plant response rating, Foxtail, Giant (giant foxtail [5]; [14]) | Foxtail, Giant plant response rating (0 to 100 scale) (giant foxtail [5]; 125 g ai/ha) | Plant response rating, Pigweed (pigweed [6]; [14]) | Pigweed plant response rating (0 to 100 scale) (pigweed [6]; 125 g ai/ha) | Plant response rating, Barnyardgrass (barnyardgrass [7]; 31 g ai/ha) | Plant response rating, Barnyardgrass (barnyardgrass [7]; 125 g ai/ha) | Plant response rating, Kochia (kochia [8]; 31 g ai/ha) | Plant response rating, Kochia (kochia [8]; 125 g ai/ha) | Plant response rating, Ragweed (ragweed [9]; 31 g ai/ha) | Plant response rating, Ragweed (ragweed [9]; 125 g ai/ha) | Plant response rating, Ryegrass, Italian (Italian ryegrass [10]; 31 g ai/ha) | Plant response rating, Ryegrass, Italian (Italian ryegrass [10]; 125 g ai/ha) | Plant response rating, Foxtail, Giant (giant foxtail [11]; 31 g ai/ha) | Plant response rating, Foxtail, Giant (giant foxtail [11]; 125 g ai/ha) | Plant response rating, Pigweed (pigweed [12]; 31 g ai/ha) | Plant response rating, Pigweed (pigweed [12]; 125 g ai/ha) | Plant response rating, Wheat (wheat; 31 g ai/ha) | Plant response rating, Wheat (wheat; 125 g ai/ha) | Plant response rating, Corn (corn; 31 g ai/ha) | Plant response rating, Corn (corn; 125 g ai/ha) | Plant response rating, Blackgrass (blackgrass; 31 g ai/ha) | Plant response rating, Blackgrass (blackgrass; 125 g ai/ha) | Plant response rating, Galium (galium; 31 g ai/ha) | Plant response rating, Galium (galium; 125 g ai/ha) | Plant response rating, Rice (rice) | Plant response rating, Sedge, Umbrella (sedge, umbrella) | Plant response rating, Ducksalad (Heteranthera limosa) | Plant response rating, Barnyardgrass (barnyardgrass [13])
